Test results from US11725204B2, “Multiplex genome engineering in eukaryotes” (priority 2016, dated 2023).

Legend:
Type in all cases: cell-based, S. cerevisiae
[1] = system: target sites at increasing distances from the URA3 marker; assay: Target distance efficiency determination (red/white screening or colony PCR with EcoRI digestion); details: +HU
Protocol: Target mutation distance is reported as the distance between the URA3 marker mutation incorporated by the selection-ssODN and the mutation incorporated by the target-ssODN. For target distances of 1 and 2 kb, ssODNs ADE290RC and ADE2_Mult10 were used within the ADE2 gene and the ARFs for these sites were determined by red/white phenotype screening. For targets at 5, 10, 15, and 20 kb distances from the Ori-URA3, target sites were chosen that differ by only a single base-pair from an EcoRI restriction site. The target ssODN was designed to incorporate a base-pair change to create the EcoRI restriction site. For each target assayed, 96 clones were analyzed by colony PCR (Primers for the amplicons analyzed are listed in Table 3) coupled to EcoRI (NEB) digestion of the amplicon for 1 hr at 37° C. The percentage of amplicons cut vs. uncut is represented as the ARF for each distance site. Each distance experiment was performed in triplicate+/−HU treatment. ARF values represent mean+/−SD.

URA3 = assay: Spontaneous URA3 mutations with transient HU treatment
Protocol: Experiments were designed to determine if transient treatment with HU would increase the efficiency for ssODN annealing at the replication fork. A 30 minute treatment with 500 mM HU increased the ARF by ˜two-fold compared to the untreated condition. Seven different ssODNs containing a single base-pair mismatch (ssODNs 1,2,5-7), insertion (ssODN #4), or deletion (ssODN #3) in ADE2 were tested and an average ARF increase of 56% (FIG. 2A) was observed. […] The effect of ssODN size and concentration was also tested. Robust cell survival post electroporation (85%) was tested for ssODN concentrations up to 20 uM, which decreased to 45% at 80 uM ssODN. The efficiency of URA3 single-plex targeting increased with increasing ssODN size and concentration with the highest ARF observed (0.08%) for 100nt ssODN at 60 uM. For coupled ADE2-URA3 targeting an optimum ade2 mutant per 5-FOA CFU was determined using a 90nt ssODN at 20 uM. For all subsequent experiments 90nt ssODNs at 20 uM were used.

ADE2 [2] = assay: eMAGE allelic replacement frequency at Ori-URA3-ADE2 locus (5-FOA selection, red/white screening)
Protocol: A list of ssODNs used for FIGS. 1-4 in this study can be found in Table 2. For eMAGE experiments, a single colony was inoculated in 2 mL CSM-Ura medium and grown overnight to saturation. The next day the culture was diluted 1:50 in 10 mL of CSM-Ura and grown for 6 hours prior to electroporation. The ssODN concentration and size were determined from optimization experiments performed in Figure S2D,F. A total of 20 uM of 90nt ssODNs consisting of 50% selection ssODN 50% target ssODN(s) was used for eMAGE transformations. The optimal HU concentration was determined from figure S2A. The eMAGE pretreatment mixture contained 500 mM HU in TE pH 8/500 mM Lithium Acetate/25 mM DTT. Electroporation for eMAGE was performed exactly as described above. After 12 hours of recovery, ˜10^5 cells were plated on 5-FOA selection plates for msh2Δ and MMR mutant strains and ˜10^7 cells were plated for strains with WT MMR. The resultant 5-FOA plates contained ˜100 colonies which were subject to screening for target ssODN incorporation. The indicated ARF values represent mean+/−SD. All data sets were collected in triplicate. For the Rad51 chemical inhibitor experiment (Figure S1J) the recovery medium was supplemented with inhibitor RI-1 (Abcam ab144558)+1.5% DMSO for solubility.
Experiments were designed to determine if Rad51-dependent ssODN recombination and incorporation of ssODNs at the DNA replication fork are two distinct pathways in eukaryotes (FIG. 1A). Unlike the E. coli chromosome, the linear chromosomes of S. cerevisiae contain multiple firing origins of replication that confound the precise designation of the lagging strand at each locus (Raghuraman, et al., Science, 294:115-121 (2001); Wyrick, et al., Science, 294:2357-2360 (2001)). Sherman and colleagues observed high frequencies of co-transformation for two ssODNs targeted within a cyc1 mutant gene when one of the ssODNs included a selectable mutation (Yamamoto, et al., Yeast, 8:935-948 (1992a)). […] Experiments were designed to determine whether Sherman's observation could be expanded for ssODNs targeting multiple proximal genes by constructing an experimental locus on chromosome XV with a defined DNA replication direction by placing the URA3 gene proximal to the origin ARS1516 (Ori) directly adjacent to ADE2, which confers a colorimetric phenotype (WT=white; Mutant=red) (FIG. 1C). Cells were transformed with ssODNs targeting the predicted lagging strand of both URA3 and ADE2, and it was observed that ssODN-derived modifications at ADE2 were increased by >10^4-fold (ARF=22%) in URA3-edited (5-FOA resistant) clones (FIG. 1C). […]

ADE2 [3] = assay: Multiplex incorporation of ssODNs and cycling (colony PCR and Sanger sequencing); details: 10-target multiplexing, with HU
Protocol: For multiplex eMAGE experiments targeting ADE2, red clones that grew on 5-FOA plates were assayed via yeast colony PCR and Sanger sequencing (Genewiz). Insertions were chosen for easy sequence detection since degenerate mismatches would contain WT sequence positions. For cycling experiments, cells were recovered in recovery media after electroporation as described above. After recovery, the population was subjected to liquid selection in 5-FOA for odd cycles and CSM-Ura for even numbered cycles to enrich for edited clones. Selections were performed for 500 uL of recovery culture seeded into 50 mL of selection medium and grown to saturation at 30° C. (˜2 days).
After the first 1:100 selection the population was diluted 1:50 in selection media and grown for 6 hours for the next electroporation step. The process was repeated for 3 cycles. A total of 100 red clones were sequenced after each cycle. For cycles 1 and 2, 200 unique genotypes were observed out of […], but for cycle 3, 76 unique genotypes were observed out of the 100 clones sequenced. Given that the degeneracy of the ssODN pool largely out-scales the number of clones assayed redundant genotypes would not be expected to arise for independent clones in any cycle assayed. The 24 redundant clones observed in cycle 3 were comprised of 5 genotypes. […]

Row | Structure (SMILES) | ARF vs target distance curve fit, Y0 ([1]; one-phase decay Y=(Y0−Z)*exp(−K*X)+Z) | ARF vs target distance curve fit, K ([1]; one-phase decay fit) | ARF vs target distance curve fit, Z ([1]; one-phase decay fit) | spontaneous URA3 mutations (URA3) | increase of ARF compared to the untreated condition (ADE2 [2]; 30 minute treatment with 500 mM HU) | HU effect on ARF with HIS3 selection marker (ADE2 [2]; HIS3 selection marker in replace of URA3) | average ARF increase (ADE2 [2]; HU treatment, seven ssODNs with single base-pair mismatch, insertion or deletion in ADE2) | multiplex enhancement of ssODN incorporation (ADE2 [3]; WT) | mean number of ssODNs incorporated (ADE2 [3]; msh2Δ) | ARF change with Rad51 inhibitor (ADE2 [2]; recovery medium supplemented with RI-1 + 1.5% DMSO)
1 | NC(=O)NO [HU, Hydroxyurea] | 49.6 | 0.279 | 2.25 | no significant increase | two-fold | HU effect was also observed | 56% | no multiplex enhancement | 3.4 per clone | 
2 | O=C1C(Cl)=C(N2CCOCC2)C(=O)N1c1ccc(Cl)c(Cl)c1 [RI-1] |  |  |  |  |  |  |  |  |  | ARF enhancement was observed
